The values below come from a melting point compilation (Tetko et al.; mined from patent text by program, amines drawn as free bases though some values may be those of a salt).

As for `Cc1cccc2c1C1(CCC(=O)NC1=O)CCC2=O` (configuration not stated), the melting point (as a rule, the temperature of the solid-liquid transition) lay in the range of 285 to 287 °C.

The compound `CC(C)(C)OC(=O)N[C@@H](CC1CCCCC1)[C@H](O)c1ccccn1` displayed a melting point of 84 to 85 °C.

`N#CCOc1ccc2cc(-c3cnc(Cc4ccc5ccccc5c4)o3)ccc2c1` displayed a melting point of 155 to 158 °C.

`c1cc(-c2cn([C@H]3CN4CCC3CC4)nn2)ccn1` registered a melting point of 150 °C.

Turning to `NCCNc1cc(-n2cccn2)nc(-c2cccs2)n1`, the melting point is 147 °C.

Compound `CC(C)(C)C(=O)C=C(C(=O)C(C)(C)C)n1cncn1` returned a melting point of 107 to 108 °C.

For the compound `CCOC(=O)C1Cc2c([nH]c3ccccc23)CN1` (configuration not stated), the melting point lay within 126 to 128 °C.

As for `COc1ccc(Br)c(-n2c(=O)[nH]c(=O)n(C)c2=O)c1`, the melting point fell in the range of 185 to 187 °C.

For `C=C(Br)Cc1cc2c(C)cc(=O)oc2c(C)c1O`, the melting point was 154 to 161 °C.

`O=C(O)CCc1cc2cc(Cl)ccc2n1S(=O)(=O)c1ccccc1` gave a melting point of 165 to 168 °C.

Take `CC(=O)Nc1cccc(Oc2c(N)cc(C(=O)O)cc2S(N)(=O)=O)c1`: the melting point was determined as 295 °C.

In turn, `CC(C)(C)OC(=O)[C@@H]1CC[C@H](CC(=O)N[C@@H](Cc2ccc(OCc3c(Cl)cccc3Cl)cc2)C(=O)O)N1Cc1ccccc1` came in with a melting point of 80 to 83 °C.

For `CC1(C)O[C@@H](CN=C2OCc3ccccc32)[C@H](CN=C2OCc3ccccc32)O1`, the melting point worked out at 204 °C.

Consider `CCC1(CCCCCC(=O)O)C(=O)NC(=O)NC1=O`, for which the melting point lay in the range of 185 to 192 °C.

`CCc1c(NC(=O)c2ccc(Br)cc2)ccc2cc(CN3CCCC3)cnc12`: the melting point lay within 230 to 231 °C.

Turning to `CC=CCn1c(Nc2cc(C)cc(C)c2)c(C(C)C)c(=O)[nH]c1=O`, the melting point fell in the range of 186 to 187 °C.

`CC(CNC(=O)c1ccc(Cl)nc1)Cn1ccnc1` (configuration not stated) came in with a melting point of 102 to 104 °C.

Take `O=C1c2ccc(F)cc2C(=O)N1CC(=O)N1c2ccccc2N(Cc2ccccc2)C(=O)[C@H]2CCC[C@H]21` (relative stereo): the melting point was in the range of 235 to 236 °C.

In the case of `CCCCCCCCCCCCNC(=O)c1cc(-c2cccc(C(F)(F)F)c2)c(OCCO)c(-c2cccc(C(F)(F)F)c2)c1`, the melting point lay within 154 to 158 °C.

Compound `C[C@@H](n1cnc2c(Br)cc(Br)cc2c1=O)[C@](O)(Cn1cncn1)c1ccc(F)cc1F` had a melting point of 134 to 135 °C.

In turn, `CCOC(=O)C(NC(=O)CNC=O)C(=O)OCC` gave a melting point of 95 to 96 °C.

With `CC(C)CCCOc1nc(N)c([N+](=O)[O-])cc1Cl`, the melting point fell in the range of 53 to 54 °C.

The compound `C=CCOc1ccc(-c2cc3ccccc3[nH]2)cc1` registered a melting point of 214 °C.

Take `CNC(=O)c1c(I)c(N)c(I)c(N(CCO)C(C)=O)c1I`: the melting point came to 197 °C.

`Cc1c(C)c(N)c2c(c1C)C(=O)C(C)(C)O2` had a melting point of 141 to 142 °C.

`Oc1ccc2cc(-c3noc4cc(O)ccc34)ccc2c1` registered a melting point of 280 to 282 °C.

As to `CCOP(=S)(OCC)N1C(=O)c2ccccc2C1=O`, the melting point lay in the range of 81 to 83 °C.

For the compound `CCOC(=O)Cn1cc(Cc2nc3c(F)c(F)cc(F)c3s2)c2ccccc21`, the melting point is 110 to 111 °C.

`O=C(O)c1cc(-n2c(-c3ccc(O)cc3)cc3c2CCCC3)ccc1O` registered a melting point of 214 to 217 °C.

The compound `COc1cc(O)ccc1-c1cnc2cnc(-c3ccc(O)cc3)nc2c1` showed a melting point of 207 to 208 °C.

`COc1cc(N(C)C)ccc1C(=O)NC1CCN(C(C)CC(C(=O)N(C)C)(c2ccccc2)c2ccccc2)CC1O` (configuration not stated) came in with a melting point of 211 °C.

Consider `CCc1ncccc1NC(=NC#N)NC(NC(=O)Cc1ccc(Cl)cc1)C(C)(C)C` (configuration not stated), for which the melting point was in the range of 112 to 114 °C.

With `CCCC(=O)NCCc1cccc2ccc(SC)cc12`, the melting point was in the range of 55 to 57 °C.

With `CN1CCC23c4c5ccc(O)c4OC2C(=NO)CCC3(O)C1C5` (configuration not stated), the melting point was in the range of 270 to 271 °C.

`COc1ccc(C(=O)N2CCN(Cc3ccccc3)c3ccccc32)cc1OC` yielded a melting point of 111 to 112 °C.

In turn, `COc1cc2cc(C(=O)OCc3ccccc3)n(CC(=O)OC(C)(C)C)c2cn1` returned a melting point of 110 °C.

`CCc1nccc(NC(=O)Cc2ccc(O)cc2)c1Cl` yielded a melting point of 158 to 161 °C.

For the compound `CC(=Cc1ccc(-c2ccccc2)s1)c1ccccc1`, the melting point lay within 115 to 125 °C.

In turn, `CC(=O)c1cc(C(N)=O)cs1` returned a melting point of 156 to 158 °C.

As for `CC(=O)Oc1ccc(C(=O)NNC(=O)OC(C)(C)C)cc1OC(C)=O`, the melting point fell in the range of 78 to 82 °C.

Turning to `OCc1cnc2ccc(Cl)cc2c1O`, the melting point was > 300 °C.

The compound `C=Cc1ccncc1C#N` gave a melting point of 56 to 57 °C.

Turning to `CCCCc1ncc(C(=O)OCC)c(=O)n1Cc1ccc(-c2ccccc2-c2nc(=O)o[nH]2)cc1`, the melting point fell in the range of 151 to 154 °C.

`CCN(CC)c1ccc2c(c1)OC(=O)N(c1ccccc1)C2(c1ccc(N(C)C)cc1)c1ccc(N(C)C)cc1` registered a melting point of 206 to 207 °C.

As for `COc1ccc(C2CCCN2S(=O)(=O)c2ccc(C)cc2)cc1` (racemic), the melting point worked out at 122 °C.

`CN(C)C(=Nc1ccccc1N1CCOCC1)N1CCCCC1` came in with a melting point of 88 to 90 °C.

As to `COC(=O)[C@H](CSSC[C@H](NC(=O)[C@@H]1CCC(=O)N1)C(=O)OC)NC(=O)[C@@H]1CCC(=O)N1`, the melting point fell in the range of 160 to 162 °C.

In the case of `COc1ccc(CNc2cc(Cn3c(C(=O)c4cc(C)cc(C)c4)c(C(C)C)c(=O)[nH]c3=O)cc(F)n2)cc1`, the melting point fell in the range of 120 to 122 °C.

`CC(C)N(CCOc1ccc(NC(=O)c2c[nH]c3c2C(=O)CCC3)cc1)C(C)C`: the melting point fell in the range of 140 to 141 °C.

For `COc1cc2c(Nc3ccc(Cl)cc3F)ncnc2cc1OCCCC(=O)N1CCN(C)CC1`, the melting point was in the range of 248 to 250 °C.

The compound `O=C1Cc2cc(F)c(N3C(=O)C4=C(CCCC4)C3=O)cc2N1` registered a melting point of 234 to 236 °C.

Consider `CCc1ccc(Nc2nc3cc(NC(=O)c4ccccc4Nc4cccc(C(F)(F)F)c4)ccc3o2)cc1`, for which the melting point lay within 174 to 176 °C.

As for `C=C(C)C(=O)Nc1cccc(OC(=O)Nc2ccccc2)c1`, the melting point was in the range of 177 to 178 °C.

On to `CC(C)(C)n1cc(C(=O)O)c(=O)c2cc(F)c(N3CCNCC3)nc21`, for which the melting point is > 270 °C.

Take `COc1cccc(-c2cn3cc(C(=O)NCCCCCCC(=O)NO)sc3n2)c1`: the melting point lay in the range of 209 to 211 °C.

In turn, `COc1cc(-c2nc(N(C)CCO)c3c(C)c(C#N)sc3n2)cc(OC)c1OC` displayed a melting point of 164 to 166 °C.

The compound `NS(=O)(=O)c1cc(Br)cc(C(F)(F)F)c1` yielded a melting point of 174 to 175 °C.

Turning to `CC(C)(C)c1cc(-c2nnc(SCC(=O)O)s2)cc(C(C)(C)C)c1O`, the melting point came to 188 °C.

Compound `COc1cc2nc(N)nc(-c3ccc(Br)cc3)c2cc1OC` yielded a melting point of 270 to 272 °C.

As for `CCOC(=O)Cc1c(C(=O)c2ccc(Cl)cc2)[nH]c2cc(Cl)ccc12`, the melting point was in the range of 186 to 188 °C.

The compound `N#Cc1cccc(C2=Nc3ccc(C#CC4(O)CCCCC4)cc3NC(=O)C2)c1` returned a melting point of 196 °C.

In turn, `COc1ccc(-c2nc(Sc3ccc(C(F)(F)F)cc3)[nH]c2-c2ccc(OC)cc2)cc1` showed a melting point of 179 to 181 °C.

`CC[C@H](C)[C@H](Nc1nc2ccccc2c(=O)o1)C(=O)OC` yielded a melting point of 86 to 87 °C.

`c1cn(Cc2ccc3c(c2)-c2[nH]nc(-c4ccsc4)c2C3)nn1` had a melting point of 249 to 252 °C.

In the case of `NC(=O)c1c(Cl)cn2c1CN(S(=O)(=O)c1ccc(-c3ccccn3)s1)CC2`, the melting point lay in the range of 213 to 214 °C.

For the compound `COc1ccc(Cn2[nH]c(N)cc2=O)cc1`, the melting point was determined as 161 °C.

Compound `Cc1cc(-c2ccc(S(C)(=O)=O)cc2)n(-c2ccc(C)c(C)c2)c1` returned a melting point of 126 to 128 °C.

For `Cc1coc(-c2ccc3c(c2)c2cc(-c4ccc(Cl)cc4Cl)c(=O)n(C)c2n3C)n1`, the melting point lay in the range of 258 to 261 °C.

`COc1cccc2c(Sc3nc(C)c(CC(=O)O)s3)cc(C(=O)O)nc12`: the melting point was in the range of 176 to 179 °C.

As to `CCCNC(=O)C(C)Cc1ccc2c(c1)c(Cc1ccc(C(=O)NS(=O)(=O)c3ccccc3C)cc1OC)cn2C` (configuration not stated), the melting point was in the range of 103 to 117 °C.

Turning to `Cc1c(NC(=O)c2ccc(OCc3ccc(Cl)cc3)cc2)ccc2cc(CN3CCCC3)cnc12`, the melting point fell in the range of 167 to 168 °C.

As to `CC(C)(C)OC(=O)NC(CO)C(=O)c1ccccc1` (configuration not stated), the melting point lay within 69 to 71 °C.

Turning to `Cc1nc2cccc(OCC(C)(C)NC(=O)CC3CCOCC3)c2c(N)c1C(=O)O`, the melting point lay within 175 to 178 °C.

`Cc1ccccc1CNC(=O)[C@@H]1CSCN1C(=O)[C@@H](O)[C@H](Cc1ccccc1)NC(=O)C(C)C(C)C(=O)OC[C@H]1O[C@@H](n2cc(C)c(=O)[nH]c2=O)CC1N=[N+]=[N-]` (some centres not stated) gave a melting point of 114 to 115 °C.

Take `CS(=O)(=O)C(CC(S(C)(=O)=O)S(C)(=O)=O)S(C)(=O)=O`: the melting point was 278 to 280 °C.

`Cc1ccc(-c2csc(C(=O)Nc3nnn[nH]3)n2)cc1` had a melting point of 276 to 278 °C.

The compound `COC(=O)Cn1c(=O)[nH]c2ccc(C(=O)c3c(C)c(OC)c4ccccn34)cc2c1=O` came in with a melting point of 253 °C.

Regarding `CCCC12CCC3=C(CCc4cc(OC)ccc43)C1CCC2=O` (configuration not stated), the melting point was 111 to 113 °C.

Compound `Cc1cc(SC2=C(O)C[C@@](CCc3cccc(O)c3)(C3CCCC3)OC2=O)c(C(C)(C)C)cc1CO` showed a melting point of 128 to 132 °C.

As to `Nc1nc(O)c2c(n1)CCCS2`, the melting point is > 300 °C.

`ON=C1CCCCC12OCCO2` yielded a melting point of 97 to 98 °C.

In turn, `CCSc1nc(Cl)nc2cccnc12` came in with a melting point of 101 to 103 °C.

Compound `O=C(NCCCNc1c([N+](=O)[O-])cnc2ccccc12)c1ccccc1` returned a melting point of 209 to 211 °C.

`CC(=O)NC[C@H]1CN(c2ccc(N3CCC(n4cc(C(C)=O)nn4)CC3)c(F)c2)C(=O)O1` returned a melting point of 220 to 222 °C.

Turning to `CCN[C@H]1CCC[C@H](Oc2ccc3[nH]ncc3c2)C1` (relative stereo), the melting point fell in the range of 116 to 118 °C.

With `CC(=O)c1ccc(O)c(CS(C)(=O)=O)c1`, the melting point lay within 206 to 208 °C.

The compound `CCOC(=O)c1cc(CC)sc1Nc1ccc(F)cc1N` came in with a melting point of 82 to 84 °C.
